# Laboratory results from patent publication US20090264433A1, “Compounds, Compositions and Methods Comprising Triazine Derivatives” (Institute for OneWorld Health, priority 2008, published 2009).
# Values joined by “and” are separate entries in the source; they are usually repeats but may differ in a detail not shown here. Equal values may be shown once.
# Tested on: mice (CD1 strain), CTX-injected small intestinal loops
# Details: mouse, in vivo
row,SMILES,closed loop % inhibition
1,"Oc1c(Cl)cc(-c2cnc(C(O)(c3ccccc3)c3ccccc3)nn2)cc1Cl [Compound 36, 2,6-dichloro-4-(3-(hydroxydiphenylmethyl)-1,2,4-triazin-6-yl)phenol]",74.9% and 62.1%
2,"Oc1c(Cl)cc(-c2cnc(OCc3ccccc3F)nn2)cc1Cl [Compound 127, 2,6-dichloro-4-(3-(2-fluorobenzyloxy)-1,2,4-triazin-6-yl)phenol]",70.2% and 62.7%
3,"Oc1c(Br)cc(-c2cnc(COc3cccc(Cl)c3Cl)nn2)cc1Br [Compound 30, 2,6-dibromo-4-(3-((2,3-dichlorophenoxy)methyl)-1,2,4-triazin-6-yl)phenol]",94.4%
4,"Oc1c(Br)cc(-c2cnc(OCc3ccc(Cl)cc3)nn2)cc1Br [Compound 20, 2,6-dibromo-4-(3-(4-chlorobenzyloxy)-1,2,4-triazin-6-yl)phenol]",87.6%
5,"Oc1c(Br)cc(-c2cnc(OCCc3ccccc3)nn2)cc1Br [Compound 96, 2,6-dibromo-4-(3-phenethoxy-1,2,4-triazin-6-yl)phenol]",78.6%
